Assay results reported in patent US20090023814A1, “COMPOSITIONS AND METHODS HAVING MT1 RECEPTOR ACTIVITY” (AGI Therapeutics Research Ltd., priority 2007, published 2009).
Where two headings read alike, the source gives them in different places.

Tests used:
MT2 receptor = molecular target: T1, MT2 receptor (Homo sapiens, UniProt P49286); conditions: at 100×10^−7 M
T1 sequence (P49286 1-362): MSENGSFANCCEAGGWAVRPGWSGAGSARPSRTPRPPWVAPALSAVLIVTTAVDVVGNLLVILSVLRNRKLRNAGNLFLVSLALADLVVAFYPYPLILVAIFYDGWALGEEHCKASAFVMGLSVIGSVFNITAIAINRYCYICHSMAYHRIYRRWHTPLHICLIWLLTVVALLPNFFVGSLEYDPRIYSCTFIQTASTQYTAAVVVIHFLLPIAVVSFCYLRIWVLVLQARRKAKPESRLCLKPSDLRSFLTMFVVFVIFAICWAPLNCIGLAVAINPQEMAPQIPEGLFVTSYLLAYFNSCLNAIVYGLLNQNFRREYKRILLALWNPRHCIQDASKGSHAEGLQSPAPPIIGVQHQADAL
Procedure: (§1) Each of those receptors were analyzed by methods known in the art. Initial assessment of binding at 100×10^−7 M (10 micro molar) was performed in duplicate.

[1] = molecular target: melatonin MT-1 sub-receptor (Homo sapiens, UniProt P48039); conditions: Table 7
Sequence of melatonin MT-1 sub-receptor (P48039 whole entry): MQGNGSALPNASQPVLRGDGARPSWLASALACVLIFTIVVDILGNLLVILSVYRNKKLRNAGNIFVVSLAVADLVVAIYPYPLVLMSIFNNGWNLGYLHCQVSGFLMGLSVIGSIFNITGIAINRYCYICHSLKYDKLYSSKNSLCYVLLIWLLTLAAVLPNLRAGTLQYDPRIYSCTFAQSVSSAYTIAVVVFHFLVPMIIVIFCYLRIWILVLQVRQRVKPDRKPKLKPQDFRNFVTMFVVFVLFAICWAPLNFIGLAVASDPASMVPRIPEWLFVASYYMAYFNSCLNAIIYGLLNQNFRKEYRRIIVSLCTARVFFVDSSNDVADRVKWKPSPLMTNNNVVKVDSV
Procedure: as §1

5-HT2B receptor = molecular target: T2, 5-HT2B receptor (Homo sapiens, UniProt P41595); experiment: 5-HT2B binding affinity, human recombinant-CHO cells, 5-HT as control (Bonhaus); conditions: for IC50: agonist 5-HT2B receptor
T2 construct: expressed in transfected cells; host or cells: CHO cells
T2 sequence (P41595 whole entry): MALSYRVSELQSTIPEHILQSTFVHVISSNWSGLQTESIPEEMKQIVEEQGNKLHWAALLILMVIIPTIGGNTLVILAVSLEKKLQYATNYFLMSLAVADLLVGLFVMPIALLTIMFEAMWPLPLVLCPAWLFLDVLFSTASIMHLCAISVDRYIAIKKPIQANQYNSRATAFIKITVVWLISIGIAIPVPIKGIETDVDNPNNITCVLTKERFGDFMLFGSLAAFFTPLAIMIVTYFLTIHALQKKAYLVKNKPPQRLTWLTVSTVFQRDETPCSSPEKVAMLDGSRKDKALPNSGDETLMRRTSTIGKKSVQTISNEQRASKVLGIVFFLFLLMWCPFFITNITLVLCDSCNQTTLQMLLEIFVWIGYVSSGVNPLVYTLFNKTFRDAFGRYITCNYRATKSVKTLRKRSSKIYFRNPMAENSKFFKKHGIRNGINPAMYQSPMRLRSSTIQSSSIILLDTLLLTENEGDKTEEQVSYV
Procedure: as §1

melatonin ML-1 [2] = experiment: ML1 binding affinity, chicken brain; conditions: Table 2; relative potency compared to CCB
Procedure: as §1

melatonin ML-1 [3] = molecular target: T3, melatonin ML-1; experiment: ML1 binding affinity, chicken brain; conditions: Table 1; chicken brain
T3 construct: chicken brain
Procedure: as §1

IC50 (5-HT2B receptor; Table 1) | (IC50: ML-1)/(IC50: CCB) (melatonin ML-1 [2]) | IC50 (melatonin ML-1 [3]) | percentage of binding 5-HT2B (5-HT2B receptor; Table 1, at 100×10^−7 M) | (IC50: 5-HT2B)/(IC50: CCB) (5-HT2B receptor; Table 2, relative potency compared to CCB) | Structure (SMILES) | percentage of binding MT2 (MT2 receptor) | % Binding MT-1 ([1]; at 0.1 ×10^−7 M) | % Binding MT-1 ([1]; at 0.3 ×10^−7 M) | % Binding MT-1 ([1]; at 1.0 ×10^−7 M) | % Binding MT-1 ([1]; at 3.0 ×10^−7 M)
 |  |  |  |  | COc1ccc(CCN(C)CCC[C@](C#N)(c2ccc(OC)c(OC)c2)C(C)C)cc1OC [R-verapamil, (R)-verapamil] | 0% | 13% | 35% | 67% | 83%
1300 nM |  |  |  |  | CCOC(=O)C1=C(C)NC(C)=C(C(=O)OC)C1c1cccc(Cl)c1Cl (centres unmarked) [Felodipine] |  |  |  |  | 
> 10000 nM | 4,348 | 2000 nM | 3% | 21,739 | COC(=O)C1=C(C)NC(C)=C(C(=O)OC(C)C)C1c1cccc2nonc12 (centres unmarked) [Isradipine] |  |  |  |  | 
